# Laboratory results as given in publication PMC12668308, “A Novel Antimalarial Agent that Inhibits Protein Synthesis in Plasmodium falciparum” (Angewandte Chemie (International Ed. in English), 2025).
# What was measured:
# Assay in all cases: [3H]-hypoxanthine incorporation assay
# [1] = system: Dd2 DDD107458 (Dd2 + pfeEF2); type: cell-based, Plasmodium falciparum
# Procedure: (§1) ^[a]72-h [^3H] hypoxanthhine incorporation assay. Data is expressed as mean±s.d..
# (§2) P. falciparum asexual blood stage parasites were cultured in human red blood cells (RBC, Blutspende SRK, Zurich) at a hematocrit of 5% in RPMI 1640 medium. The RPMI 1640 medium (ThermoFisher Scientific #51800−043) was supplemented with the following: 24 mM NaHCO3 (pH 7.3, Sigma-Aldrich #31437−500G-R), 25 mM Hepes (Sigma-Aldrich #H4034−500G), 0.36 mM hypoxanthine (Sigma-Aldrich # H9377−25G), 100 µg mL^-1 neomycin (Sigma-Aldrich #N6386−100G) and 0.5% Albumax II (Thermo Fisher #11021−045). Additionally, 2 mM choline chloride (279 mg/L, Sigma-Aldrich #C7527−100G) was added to the culture to block the induction of sexual commitment as described. ^[31^] The RPMI 1640 medium and components were dissolved in water (Milli-Q purified), stirred for at least 3 h, and then sterile filtered (0.22 μm pore size) with a bottle top filter (Corning # 431118). Parasite cultures were maintained in an atmosphere of 3% O2, 4% CO2, and 93% N2 in air-tight chambers at 37 °C. The [^3H]-hypoxanthine incorporation assay was used to test compound activity in the specific parasite lines as described.^[32^] Briefly, compounds were dissolved in DMSO (10 mM) and diluted in a hypoxanthine-free culture medium. A limiting dilution was performed over a 64-fold range (6-step twofold dilution) in a 96-well plate in duplicates. For every starting concentration, a limiting dilution was performed over a 64-fold range (6-step twofold dilution) in a 96-well plate in two biological duplicates. Parasites were added at 100 µL to each well containing the compound to obtain a final parasitemia of 0.3% and haematocrit of 1.25%. The plates were incubated for 48 h before 0.25 µCi of [^3H]-hypoxanthine was added per well for an additional 24 h. Parasites were harvested on a glass-fiber filter with a Microbeta FilterMate cell harvester (Perkin Elmer, Waltham, USA) and radioactivity was counted using a MicroBeta2 liquid scintillation counter (Perkin Elmer, Waltham, US). The results were recorded, processed by subtraction of the mean background signal obtained from the uninfected RBC controls and expressed as percentage of untreated controls. The fifty percent inhibitory concentration (IC50) was calculated by using nonlinear, four parameter (variable slope) curve fitting as described ^[33^] after importing into GraphPad Prism (version 8.3.0).
# [2] = system: Dd2 DSM265 (Dd2 + pfdhodh); type: cell-based, Plasmodium falciparum
# Procedure: as §1, §2
# [3] = system: Dd2 ELQ300 (Dd2 + pfcytb); type: cell-based, Plasmodium falciparum
# Procedure: as §1, §2
# [4] = system: Dd2 Fosmidomycin (Dd2 + pfdxr); type: cell-based, Plasmodium falciparum
# Procedure: as §1, §2
# [5] = system: Dd2 GNF156 (Dd2 + pfcarl); type: cell-based, Plasmodium falciparum
# Procedure: as §1, §2
# [6] = system: Dd2 MMV390048 (Dd2 + pfpI4k); type: cell-based, Plasmodium falciparum
# Procedure: as §1, §2
# [7] = system: Dd2 NITD609 (Dd2 + pfatp4); type: cell-based, Plasmodium falciparum
# Procedure: as §1, §2
# P. falciparum Dd2 = type: cell-based, Plasmodium falciparum
# Procedure: as §1, §2
# P. falciparum K1 = type: cell-based, Plasmodium falciparum
# Procedure: as §1, §2
# 3D7^WT = type: cell-based; conditions: Plasmodium falciparum, 3D7; 72-h assay; mean±s.d.; read-out: 3D7^WT IC50
# Procedure: ^[a] 72-h [^3H] hypoxanthhine incorporation assay; Data is expressed as mean±s.d.. The assay was performed in three independent biological experiments, each in biological duplicates.
# as §2
# [8] = Plasmodium falciparum, DD2, 72 h
smiles,measurement,setting,value
"CN1CCN(Cc2ccc(O)c(NC(=O)c3cccc(Oc4cc(C(F)(F)F)ccn4)c3)c2)CC1 [Compound 31, N-(2-hydroxy-5-((4-methylpiperazin-1-yl)methyl)phenyl)-3-((4-(trifluoromethyl)pyridin-2-yl)oxy)benzamide]",IC50 fold shift relative to Dd2 strain,[1]; Dd2 DDD107458,0.6
same,IC50,[1]; [8],5.6 ± 0.9 nM
same,IC50 fold shift relative to Dd2 strain,[2]; Dd2 DSM265,0.3
same,IC50,"[2]; Plasmodium falciparum, 72 h",2.8 ± 0.5 nM
same,IC50 fold shift relative to Dd2 strain,[3]; Dd2 ELQ300,0.5
same,IC50,[3]; [8],4.4 ± 0.1 nM
same,IC50 fold shift relative to Dd2 strain,[4]; Dd2 Fosmidomycin,0.3
same,IC50,[4]; [8],2.4 ± 0.6 nM
same,IC50 fold shift relative to Dd2 strain,[5]; Dd2 GNF156,0.7
same,IC50,[5]; [8],6.6 ± 0.5 nM
same,IC50 fold shift relative to Dd2 strain,[6]; Dd2 MMV390048,0.5
same,IC50,[6]; [8],4.8 ± 1.5 nM
same,IC50 fold shift relative to Dd2 strain,[7]; Dd2 NITD609,0.7
same,IC50,[7]; [8],6.2 ± 2.5 nM
same,IC50 fold shift relative to Dd2 strain,P. falciparum Dd2; Dd2,1.0
same,IC50 ratio relative to NF54 strain,P. falciparum Dd2; Dd2,5.1
same,IC50,P. falciparum Dd2; [8],9.3 ± 0.4 nM
same,IC50 ratio relative to NF54 strain,P. falciparum K1; K1,0.7
same,IC50,"P. falciparum K1; Plasmodium falciparum, K1, 72 h",1.3 ± 0.2 nM
same,IC50,3D7^WT,2.4 ± 0.3 nM
